Measurements published in patent US9670204B2, “Compounds and pharmaceutical compositions thereof for the treatment of inflammatory disorders” (Galapagos NV, priority 2013, dated 2017).

target: T1, hENPP2 (UniProtKB/SwissProt Q13822) (Homo sapiens (Human), UniProt Q13822); assay: hENPP2 biochemical assay, LPC as substrate; conditions: LPC (palmitoyl 16:0) as substrate
Experimental: The principle of the assay consists in quantifying the released choline with an enzymatic method using choline oxidase and peroxidase. Choline oxydation by choline oxydase releases betaine and peroxide. The latter is quantified in presence of HRP that converts the peroxide detection agent TOOS and 4-aminoantipyrine into quinoneimine dye. The appearance of quinoneimine dye is measured spectrophotometrically at 555 nm and is proportional to the amount of choline released by ENPP2. Inhibition of ENPP2 will result in a decrease of the signal.
Compound IC50 values are determined in a hENPP2 (UniProtKB/SwissProt Sequence ref Q13822) biochemical assay using LPC as substrate.
The enzyme is diluted in 50 mM Tris-HCl pH 8.5, 500 mM NaCl, 5 mM KCl, 10 mM CaCl2, 0.1% fatty acid free BSA in a total volume of 10 μL. the reaction is started by the addition of 10 μL of 150 μM LPC (palmitoyl 16:0) diluted in the same buffer as described above and the mixture is incubated at 37° C. for 30 min. The reaction is terminated and choline quantified by the addition of a 25 μL of a mixture containing 0.6 U/mL of choline oxidase, 0.6 U/mL of peroxydase, 1.8 mM TOOS, 1.2 mM amino-antipyrine, 20 mM EGTA (stop-developer solution) diluted in the buffer described above. […] is read on the Envision after an incubation of 30 min at room temperature (Excitation 555 nm, excitation light=70%).

IC50 | Compound
> 1000 nM | CCc1nc2ccc(C3CCN(CC4CN(C)C(=O)O4)CC3)cn2c1N(C)c1nc(-c2ccc(F)cc2)cs1 (stereo not drawn) [Compound 195, 5-((4-(2-ethyl-3-((4-(4-fluorophenyl)thiazol-2-yl)(methyl)amino)imidazo[1,2-a]pyridin-6-yl)piperidin-1-yl)methyl)-3-methyloxazolidin-2-one]
500 to 1000 nM | CCc1nc2ccc(C3CCN(S(C)(=O)=O)CC3)cn2c1N(C)c1nc(-c2ccc(F)cc2CO)cs1 [Compound 107, (2-(2-((2-ethyl-6-(1-(methylsulfonyl)piperidin-4-yl)imidazo[1,2-a]pyridin-3-yl)(methyl)amino)thiazol-4-yl)-5-fluorophenyl)methanol]
100 to 500 nM | CCc1nc2ccc(C3CCN(S(C)(=O)=O)CC3)cn2c1N(C)c1nc(-c2ccc(F)cc2C#N)c(C)s1 [Compound 97, 2-(2-((2-ethyl-6-(1-(methylsulfonyl)piperidin-4-yl)imidazo [1,2-a]pyridin-3-yl)(methyl)amino)-5-methylthiazol-4-yl)-5-fluorobenzonitrile]
0.01 to 100 nM | CCc1nc2ccc(N3CCN(CC(=O)N4CCC4)CC3)cn2c1N(C)c1nc(-c2ccc(F)cc2)cs1 [Compound 30, 1-(azetidin-1-yl)-2-(4-(2-ethyl-3-((4-(4-fluorophenyl)thiazol-2-yl)(methyl)amino)imidazo[1,2-a]pyridin-6 yl)piperazin-1-yl)ethanone]
> 1000 nM | CCc1nc2ccc(C3CCN(S(C)(=O)=O)CC3)cn2c1N(C)c1nc(-c2ccc(F)c(F)c2)cs1 [Compound 83, 4-(3,4-difluorophenyl)-N-(2-ethyl-6-(1-(methylsulfonyl)piperidin-4-yl)imidazo [1,2-a]pyridin-3-yl)-N-methylthiazol-2-amine]
> 1000 nM | CCc1nc2ccc(C3CCN(CC4COC(=O)N4)CC3)cn2c1N(C)c1nc(-c2ccc(F)cc2)cs1 (stereo not drawn) [Compound 198, 4-((4-(2-ethyl-3-((4-(4-fluorophenyl)thiazol-2-yl)(methyl)amino)imidazo[1,2-a]pyridin-6-yl)piperidin-1-yl)methyl)oxazolidin-2-one]
0.01 to 100 nM | CCc1nc2ccc(N3CCN(CC(=O)N4CC(F)C4)CC3)cn2c1N(C)c1nc(-c2ccc(F)cc2C#N)cs1 [Compound 164, 2-(2-((2-ethyl-6-(4-(2-(3-fluoroazetidin-1-yl)-2-oxoethyl)piperazin-1-yl)imidazo[1,2-a]pyridin-3-yl)(methyl)amino)thiazol-4-yl)-5-fluorobenzonitrile]
500 to 1000 nM | CCc1nc2ccc(N3CCN(CC(N)=O)CC3)cn2c1N(C)c1nc(-c2ccc(F)cc2)cs1 [Compound 33, 2-(4-(2-ethyl-3-((4-(4-fluorophenyl)thiazol-2-yl)(methyl)amino)imidazo[1,2-a]pyridin-6-yl)piperazin-1-yl)acetamide]
> 1000 nM | CCc1nc2ccc(C3=CCN(S(C)(=O)=O)CC3)cn2c1N(C)c1nc(-c2ccc(OC)cc2)cs1 [Compound 71, N-(2-ethyl-6-(1-(methylsulfonyl)-1,2,3,6-tetrahydropyridin-4-yl)imidazo[1,2-a]pyridin-3-yl)-4-(4-methoxyphenyl)-N-methylthiazol-2-amine]
500 to 1000 nM | CCc1nc2ccc(C3CCN(CC4CNC(=O)O4)CC3)cn2c1N(C)c1nc(-c2ccc(F)cc2)cs1 (stereo not drawn) [Compound 122, 5-((4-(2-ethyl-3-((4-(4-fluorophenyl)thiazol-2-yl)(methyl)amino)imidazo[1,2-a]pyridin-6-yl)piperidin-1-yl)methyl)oxazolidin-2-one]
100 to 500 nM | CCc1nc2ccc(C3CCN(C(=O)CN(C)C)CC3)cn2c1N(C)c1nc(-c2ccc(F)cc2)cs1 [Compound 129, 2-(dimethylamino)-1-(4-(2-ethyl-3-((4-(4-fluorophenyl)thiazol-2-yl)(methyl)amino)imidazo[1,2-a]pyridin-6-yl)piperidin-1-yl)ethanone]
> 1000 nM | [2H]C([2H])([2H])N(c1nc(-c2ccc(F)cc2)cs1)c1c(CC)nc2ccc(C3CCN(S(C)(=O)=O)CC3)cn12 [Compound 102, 4-(4-fluorophenyl)-N-(2-ethyl-6-(1-(methylsulfonyl)piperidin-4-yl)imidazo [1,2-a]pyridin-3-yl)-N-(d3-methyl)thiazol-2-amine]
> 1000 nM | CCOC(=O)C(=O)N1CCN(c2ccc3nc(CC)c(N(C)c4nc(-c5ccc(F)cc5)cs4)n3c2)CC1 [Compound 228, ethyl 2-(4-(2-ethyl-3-((4-(4-fluorophenyl)thiazol-2-yl)(methyl)amino)imidazo[1,2-a]pyridin-6-yl)piperazin-1-yl)-2-oxoacetate]
> 1000 nM | CCc1nc2ccc(C3CCN(CC(=O)NCCCO)CC3)cn2c1N(C)c1nc(-c2ccc(F)cc2)cs1 [Compound 123, 2-(4-(2-ethyl-3-((4-(4-fluorophenyl)thiazol-2-yl)(methyl)amino)imidazo[1,2-a]pyridin-6-yl)piperidin-1-yl)-N-(3-hydroxypropyl)acetamide]
500 to 1000 nM | CCc1nc2ccc(N3CCN(CC(=O)NC)CC3)cn2c1N(C)c1nc(-c2ccc(F)cc2C#N)c(C)s1 [Compound 163, 2-(4-(3-((4-(2-cyano-4-fluorophenyl)-5-methylthiazol-2-yl)(methyl)amino)-2-ethylimidazo[1,2-a]pyridin-6-yl)piperazin-1-yl)-N-methylacetamide]
> 1000 nM | CCc1nc2ccc(N3CCN(C(=O)C4CCCN4C(=O)OC(C)(C)C)CC3)cn2c1N(C)c1nc(-c2ccc(F)cc2)cs1 (stereo not drawn) [Compound 44, tert-butyl 2-(4-(2-ethyl-3-((4-(4-fluorophenyl)thiazol-2-yl)(methyl)amino)imidazo[1,2-a]pyridin-6-yl)piperazine-1-carbonyl)pyrrolidine-1-carboxylate]
500 to 1000 nM | CCc1nc2ccc(C3CCN(CC(=O)N(C)CCO)CC3)cn2c1N(C)c1nc(-c2ccc(F)cc2)cs1 [Compound 119, 2-(4-(2-ethyl-3-((4-(4-fluorophenyl)thiazol-2-yl)(methyl)amino)imidazo[1,2-a]pyridin-6-yl)piperidin-1-yl)-N-(2-hydroxyethyl)-N-methylacetamide]
500 to 1000 nM | CCc1nc2ccc(N3CCN(C(=O)C4CC(=O)N(Cc5ccccc5)C4)CC3)cn2c1N(C)c1nc(-c2ccc(F)cc2)cs1 (stereo not drawn) [Compound 205, 1-Benzyl-4-[4-(2-ethyl-3-{[4-(4-fluoro-phenyl)-thiazol-2-yl]-methyl-amino}-imidazo[1,2-a]pyridin-6-yl)-piperazine-1-carbonyl]-pyrrolidin-2-one]

target: T1, hENPP2; assay: fluorescent hENPP2 biochemical assay, FS-3 as substrate; conditions: read-out: FS3-IC50
Experimental: Compound IC50 values are determined in a fluorescent hENPP2 (UniProtKB/SwissProt Sequence ref Q13822) biochemical assay using the fluorogenic autotaxin substrate FS-3 as substrate. FS-3 is a doubly labeled analog of LPC wherein the fluorophore is quenched through intramolecular energy transfer. Without hENPP2, the emission of the probe is quenched. If the substrate is hydrolyzed by hENPP2, the emission of the probe is not quenched anymore resulting in a fluorescence increase.
The enzyme is diluted in 50 mM Tris-HCl pH 8.0, 250 mM NaCl, 5 mM KCl, 1 mM MgCl2, 1 mM CaCl2, 0.1% fatty acid free BSA in a total volume of 20 μL. Enzyme mixture is added to compounds and the resulting mixture is incubated for 30 min at room temperature under shaking. The reaction is started by the addition of 20 μL of 0.75 μM FS-3 diluted in the same buffer as described above and the mixture is incubated at 30° C. for 30 min. Fluorescence is read on the Envision (Excitation 485 nm, emission 520 nm).

IC50 | Compound
0.01 to 100 nM | CCc1nc2ccc(C3=CCSCC3)cn2c1N(C)c1nc(-c2ccc(Cl)cc2)cs1 [Compound 231, 4-(4-chlorophenyl)-N-(6-(3,6-dihydro-2H-thiopyran-4-yl)-2-ethylimidazo[1,2-a]pyridin-3-yl)-N-methylthiazol-2-amine]
100 to 500 nM | CCc1nc2ccc(C3=NCC(C)O3)cn2c1N(C)c1nc(-c2ccc(F)cc2)cs1 (stereo not drawn) [Compound 236, N-(2-ethyl-6-(5-methyl-4,5-dihydrooxazol-2-yl)imidazo[1,2-a]pyridin-3-yl)-4-(4-fluorophenyl)-N-methylthiazol-2-amine]
0.01 to 100 nM | CCc1nc2ccc(C3CCN(CC4CCCCC4)CC3)cn2c1N(C)c1nc(-c2ccc(F)cc2)cs1 [Compound 235, N-(6-(1-(cyclohexylmethyl)piperidin-4-yl)-2-ethylimidazo[1,2-a]pyridin-3-yl)-4-(4-fluorophenyl)-N-methylthiazol-2-amine]
0.01 to 100 nM | CCc1nc2ccc(N3CCN(C(=O)OC(C)(C)C)CC3)cn2c1N(C)c1nc(-c2ccc(Cl)cc2)cs1 [Compound 234, tert-butyl 4-(3-((4-(4-chlorophenyl)thiazol-2-yl)(methyl)amino)-2-ethylimidazo[1,2-a]pyridin-6-yl)piperazine-1-carboxylate]
0.01 to 100 nM | CCc1nc2ccc(C3=CCN(C(=O)OC(C)(C)C)CC3)cn2c1N(C)c1nc(-c2ccc(Cl)cc2)cs1 [Compound 230, tert-butyl 4-(3-((4-(4-chlorophenyl)thiazol-2-yl)(methyl)amino)-2-ethylimidazo[1,2-a]pyridin-6-yl)-5,6-dihydropyridine-1(2H)-carboxylate]
0.01 to 100 nM | CCc1nc2ccc(C3CCN(S(C)(=O)=O)CC3)cn2c1N(C)c1nc(-c2ccc(F)cc2)c(Br)s1 [Compound 135, 5-bromo-N-(2-ethyl-6-(1-(methylsulfonyl)piperidin-4-yl)imidazo [1,2-a]pyridin-3-yl)-4-(4-fluorophenyl)-N-methylthiazol-2-amine]
